Assay results reported in publication PMC4379176, “Unsaturation of Very-Long-Chain Ceramides Protects Plant from Hypoxia-Induced Damages by Modulating Ethylene Signaling in Arabidopsis” (PLoS Genetics, 2015).
Like-named read-outs stand apart in the source and are kept apart here.

Key:
[1] = target: T1, rCTR1 (Arabidopsis thaliana, UniProt Q05609); assay: microscale thermophoresis; format: binding
T1 construct: gene CTR1; full-length CTR1 coding region, N-terminal GST fusion (pGEX-6P-1), E. coli BL21 (DE3); tag kept (detected by anti-GST)
T1 sequence (Q05609 1-821): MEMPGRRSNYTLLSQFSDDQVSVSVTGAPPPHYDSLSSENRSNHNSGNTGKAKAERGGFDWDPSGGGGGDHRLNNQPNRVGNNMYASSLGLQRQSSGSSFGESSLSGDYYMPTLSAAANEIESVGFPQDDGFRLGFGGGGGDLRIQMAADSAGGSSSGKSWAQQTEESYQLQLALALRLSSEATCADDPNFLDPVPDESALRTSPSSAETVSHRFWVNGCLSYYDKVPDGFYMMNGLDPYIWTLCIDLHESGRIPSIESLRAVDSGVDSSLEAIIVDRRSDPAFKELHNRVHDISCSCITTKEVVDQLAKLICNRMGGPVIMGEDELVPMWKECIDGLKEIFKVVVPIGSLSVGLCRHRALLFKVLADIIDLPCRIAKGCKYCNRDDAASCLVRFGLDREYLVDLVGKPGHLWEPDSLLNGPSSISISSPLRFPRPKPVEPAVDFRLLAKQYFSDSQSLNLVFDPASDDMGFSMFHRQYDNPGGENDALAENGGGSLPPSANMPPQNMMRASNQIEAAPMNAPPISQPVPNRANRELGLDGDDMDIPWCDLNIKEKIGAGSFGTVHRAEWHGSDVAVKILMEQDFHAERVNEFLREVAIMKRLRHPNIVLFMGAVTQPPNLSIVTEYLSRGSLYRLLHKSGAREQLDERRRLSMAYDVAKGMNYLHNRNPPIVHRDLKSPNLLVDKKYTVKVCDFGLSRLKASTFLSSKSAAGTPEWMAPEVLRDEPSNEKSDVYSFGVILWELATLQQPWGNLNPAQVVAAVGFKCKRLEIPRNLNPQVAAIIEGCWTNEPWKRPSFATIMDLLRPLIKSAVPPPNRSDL
Source text: microscale thermophoresis on rCTR1

[2] = target: T2, rCTR1-K (Arabidopsis thaliana, UniProt Q05609); assay: microscale thermophoresis; format: binding; details: liposomes of the lipid, 10 nM RED-labelled protein, 50 mM Tris-HCl pH 7.4, 150 mM NaCl, 10 mM MgCl2, 0.05% Tween-20
T2 construct: gene CTR1; tag kept
Source text: microscale thermophoresis on rCTR1-K

[3] = target: T1, rCTR1; assay: TR-FRET kinase assay (HTRF KinEASE, STK Substrate 2-biotin); format: biochemical; details: liposomes pre-incubated 30 min at 4°C; 100 μM ATP, 1 μM STK Substrate 2-biotin; room temperature; inhibition
[4] = target: T2, rCTR1-K; assay: as above; format: biochemical; details: liposomes pre-incubated 30 min at 4°C; 100 μM ATP, 1 μM STK Substrate 2-biotin; room temperature; inhibition
[5] = read-out: Dissociation Constants (K d) / 24:1-Cer

## 18:0-Cer
[1]; liposomes of the lipid, 10 nM RED-labelled protein, 50 mM Tris-HCl pH 7.4, 150 mM NaCl, 10 mM MgCl2, 0.05% Tween-20, highest liposome concentration 50 μM, no binding seen on filters, read-out: Dissociation Constants (K d) / 18:0-Cer
  Kd: 50.6 ± 5.2 µM
[2]; read-out: Dissociation Constants (K d) / 18:0-Cer
  Kd: 49.3 ± 7 µM

## 24:0-Cer
[1]; liposomes of the lipid, 10 nM RED-labelled protein, 50 mM Tris-HCl pH 7.4, 150 mM NaCl, 10 mM MgCl2, 0.05% Tween-20, read-out: Dissociation Constants (K d) / 24:0-Cer
  Kd: 10.8 ± 1.3 µM
[2]; read-out: Dissociation Constants (K d) / 24:0-Cer
  Kd: 4.3 ± 1.3 µM

## CCCCCCCC/C=C\CCCCCCCCCCCCCC(=O)N[C@@H](CO)[C@H](O)/C=C/CCCCCCCCCCCCC [24:1-Cer]
[3]
  relative CTR1 activity at 1 nM: both rCTR1 and rCTR1-K proteins exhibited decreased kinase activities
[4]
  relative CTR1 activity at 1 nM: both rCTR1 and rCTR1-K proteins exhibited decreased kinase activities
[1]; [5]
  Kd: 1.6 ± 0.1 µM
[2]; [5]
  Kd: 1 ± 0.1 µM
